This is an account of results in ChEMBL document CHEMBL4706646, “Synthesis and evaluation of a collection of purine-like C-nucleosides as antikinetoplastid agents” (Eur J Med Chem, 2021).

The structures appear in SMILES notation. Bounds are passed on as bounds.

Data set [1] relates to Trypanosoma brucei rhodesiense. The data set is described as follows: Antitrypanosomal activity against Trypanosoma brucei rhodesiense. The class given is functional, organism-based.
The test system of data set [2] is Trypanosoma brucei brucei. The data set is described as follows: Antitrypanosomal activity against Trypanosoma brucei brucei. Format: functional, organism-based.
The nature of data set [3]: Cytotoxicity against human MRC-5 SV2 cells assessed as reduction in cell viability. Format: cell-based.
For a further data set, the system named is Trypanosoma cruzi. Nature of the data set: Antitrypanosomal activity against Trypanosoma cruzi infected in human MRC-5 SV2 cells. The class given is functional, organism-based.
In another data set the test system is Leishmania infantum. The data set is described as follows: Antileishmanial activity against Leishmania infantum infected in mouse primary macrophages. Format: functional, organism-based. As to conditions: Primary macrophage.
Data set [4] is described as follows: Cytotoxicity against mouse primary macrophages assessed as reduction in cell viability. The class given is cell-based, Macrophage.

`Cc1ccc(C(=O)Nc2ccc(S(=O)(=O)O)c3cc(S(=O)(=O)O)cc(S(=O)(=O)O)c23)cc1NC(=O)c1cccc(NC(=O)Nc2cccc(C(=O)Nc3cc(C(=O)Nc4ccc(S(=O)(=O)O)c5cc(S(=O)(=O)O)cc(S(=O)(=O)O)c45)ccc3C)c2)c1` [SURAMIN]: the IC50 (commonly the concentration needed to halve the response being measured) in data set [1] amounted to 0.04 µM.

For the compound `Nc1ncnn2c([C@@H]3O[C@H](CO)C[C@H]3O)cc(-c3ccc(Cl)cc3)c12`, the half-maximal inhibitory concentration (IC50) worked out at 3.53 µM in data set [2], 0.23 µM with Trypanosoma cruzi, 23.3 µM in the data set with Leishmania infantum and 1.65 µM in data set [1]. The CC50 (as a rule, the concentration that lowers cell viability or growth by half) in data set [3] is at least 22.3 µM; in data set [4] it was 24 µM.

As for `O=C(Cn1ccnc1[N+](=O)[O-])NCc1ccccc1` [BENZNIDAZOLE], inhibition in the data set with Trypanosoma cruzi was half-maximal at 2.02 µM (IC50).

With `O=c1[nH]cnn2c([C@@H]3O[C@H](CO)[C@@H](O)[C@H]3O)cc(Br)c12`, the IC50 in data set [2] was 30.9 µM; in the data set with Trypanosoma cruzi it was over 64 µM; in the data set on Leishmania infantum, over 64 µM; in data set [1], 20 µM. Besides, the CC50 in data set [3] and in data set [4] was over 64 µM in each case.

Turning to `N#C[C@@]1(c2cc(Br)c3c(N)ncnn23)O[C@H](CO)[C@@H](O)[C@H]1O`, the IC50 in data set [2] was 13 µM; with Trypanosoma cruzi, 39.3 µM; in the data set on Leishmania infantum, 32.5 µM; in data set [1], 1.58 µM. For the same compound, the CC50 amounted to 11 µM in data set [3] and 32 µM in data set [4].

With `O=c1[nH]cnn2c([C@@H]3O[C@H](CO)[C@@H](O)[C@H]3O)cnc12`, the IC50 in data set [2] came to 0.5 µM; in the data set on Trypanosoma cruzi, 0.6 µM; in the data set on Leishmania infantum it was 3.17 µM; in data set [1] it was 3.01 µM. Besides, the CC50 in data set [3] and in data set [4] was over 64 µM each time.

With `Nc1ncnn2c([C@@H]3O[C@H](CO)[C@@H](O)[C@H]3O)cc(-c3ccc(Cl)cc3)c12`, the IC50 in data set [2] stood at 3.89 µM; in the data set on Trypanosoma cruzi, 0.54 µM; with Leishmania infantum, 236 µM; in data set [1], 3.71 µM. Besides, the half-maximal cytotoxic concentration (CC50) in data set [3] was 10.8 µM; in data set [4], 5 µM.

With `Nc1ncnc2c([C@@H]3O[C@H](CO)[C@@H](O)[C@H]3O)cnn12`, the IC50 in data set [2] came to 24.8 µM; in the data set with Trypanosoma cruzi, 3.81 µM; in the data set with Leishmania infantum, 21.9 µM; in data set [1], 33.8 µM. Moreover, the CC50 in data set [3] was 9.32 µM; in data set [4], over 64 µM.

As to `Nc1ncnc2c([C@@H]3O[C@H](CO)[C@@H](O)[C@H]3O)cn(-c3ccc(Cl)c(F)c3)c12`, the IC50 in data set [2] was 40.3 µM; with Trypanosoma cruzi it was 1.04 µM; with Leishmania infantum, over 64 µM; in data set [1] it was 29 µM. For the same compound, the CC50 in data set [3] and in data set [4] was over 64 µM each time.

In the case of `O=c1[nH]cnn2c([C@@H]3O[C@H](CO)C[C@H]3O)ccc12`, the half-maximal inhibitory concentration (IC50) was over 64 µM in data set [2], over 64 µM in the data set on Trypanosoma cruzi, over 64 µM in the data set with Leishmania infantum and 33.8 µM in data set [1]. For the same compound, the CC50 in data set [3] and in data set [4] was over 64 µM throughout.

As for `Nc1nccn2c([C@@H]3O[C@H](CO)[C@@H](O)[C@H]3O)cnc12`, the IC50 was over 64 µM in data set [2], over 64 µM in the data set on Trypanosoma cruzi, over 64 µM in the data set on Leishmania infantum and 0.81 µM in data set [1]. Further, the CC50 in data set [3] and in data set [4] was over 64 µM in each case.

On to `N#C[C@@]1(c2ccc3c(N)ncnn23)O[C@H](CO)[C@@H](O)[C@H]1O` [GS-441524], for which the IC50 in data set [2] is 8.91 µM; in the data set with Trypanosoma cruzi, over 64 µM; with Leishmania infantum, over 64 µM; in data set [1] it was 0.58 µM. Besides, the CC50 in data set [3] and in data set [4] was over 64 µM throughout.

With `Nc1ncnn2c([C@@H]3O[C@H](CO)[C@@H](O)[C@H]3O)cc(Br)c12`, the half-inhibitory concentration (IC50) in data set [2] turned out to be 1.69 µM; with Trypanosoma cruzi, 0.78 µM; in the data set with Leishmania infantum, 1.13 µM; in data set [1], 0.14 µM. Besides, the figures for the CC50 in data set [3] and in data set [4] were at least 11.8 µM and 2 µM, respectively.

`Nc1ncnn2c([C@@H]3O[C@H](CO)[C@@H](O)[C@H]3O)cnc12`: the half-inhibitory concentration (IC50) in data set [2] was under 0.25 µM; in the data set on Trypanosoma cruzi, 0.62 µM; in the data set on Leishmania infantum, 5.15 µM; in data set [1] it was 2 µM. Further, the CC50 worked out at 1.41 µM in data set [3] and 32 µM in data set [4].

`Nc1ncnc2c([C@@H]3O[C@H](CO)[C@@H](O)[C@H]3O)cn(-c3ccc(Br)cc3)c12`: the IC50 in data set [2] was 41.8 µM; in the data set on Trypanosoma cruzi, 0.46 µM; in the data set on Leishmania infantum, at least 50.8 µM; in data set [1], 28.9 µM. Further, the CC50 in data set [3] and in data set [4] was over 64 µM in each case.

Turning to `Nc1ncnn2c([C@@H]3O[C@H](CO)[C@@H](O)[C@H]3O)ccc12`, the IC50 (in data set [2]; in the data set on Trypanosoma cruzi; with Leishmania infantum; in data set [1]) was under 0.25 µM throughout. Further, the CC50 in data set [3] and in data set [4] was under 0.25 µM each time.

Take `Nc1ncnn2c([C@@H]3O[C@H](CO)[C@@H](O)[C@H]3O)cc(-c3ccc(Cl)c(F)c3)c12`: the IC50 in data set [2] is 6.78 µM; in the data set with Trypanosoma cruzi, 2.45 µM; with Leishmania infantum it was at least 40.3 µM; in data set [1], 5.98 µM. Moreover, the CC50 was at least 40.3 µM in data set [3] and over 64 µM in data set [4].

`Nc1nccn2c([C@@H]3O[C@H](CO)C[C@H]3O)cnc12`: the IC50 is over 64 µM in data set [2], over 64 µM with Trypanosoma cruzi, over 64 µM in the data set on Leishmania infantum and 55.7 µM in data set [1]. For the same compound, the CC50 in data set [3] and in data set [4] was over 64 µM in each case.

Turning to `OC[C@H]1O[C@@H](c2cnn3c(O)ncnc23)[C@H](O)[C@@H]1O`, the IC50 in data set [2] was 17.2 µM; with Trypanosoma cruzi it was 10.1 µM; in the data set with Leishmania infantum, 34.2 µM; in data set [1] it was 36.7 µM. The CC50 in data set [3] and in data set [4] was over 64 µM throughout.

On to `O=c1[nH]cnn2c([C@@H]3O[C@H](CO)[C@@H](O)[C@H]3O)ccc12`, for which the IC50 in data set [2] was 3.53 µM; in the data set with Trypanosoma cruzi it was 7.67 µM; in the data set on Leishmania infantum, 5.66 µM; in data set [1] it was 7.06 µM. The results for the CC50 in data set [3] and in data set [4] were 49.4 µM and over 64 µM, respectively.

In the case of `CCCCCCCCCCCCCCCCOP(=O)([O-])OCC[N+](C)(C)C` [MILTEFOSINE], the IC50 in the data set on Leishmania infantum is 7.47 µM.

`N#C[C@]1(c2ccc3c(N)ncnn23)O[C@H](CO)[C@@H](O)[C@H]1O`: the IC50 in data set [2] is 10.3 µM; in the data set with Trypanosoma cruzi it was over 64 µM; in the data set with Leishmania infantum, over 64 µM; in data set [1] it was 1.77 µM. Further, the CC50 in data set [3] and in data set [4] was over 64 µM in each case.

As to `Nc1ncnc2c([C@@H]3O[C@H](CO)[C@@H](O)[C@H]3O)cn(-c3ccc(Cl)cc3)c12`, the concentration for half-maximal inhibition (IC50) in data set [2] is 26.9 µM; in the data set on Trypanosoma cruzi, 0.34 µM; in the data set with Leishmania infantum it was over 64 µM; in data set [1], 26.2 µM. For the same compound, the CC50 in data set [3] and in data set [4] was over 64 µM each time.
